Reference: ChEMBL document CHEMBL3407456, “Glycosylated enfuvirtide: a long-lasting glycopeptide with potent anti-HIV activity” (J Med Chem, 2015)

Tests used:
[1] = test system: Human immunodeficiency virus 1; experiment: Antiviral activity against HIV-1 SF33 infected in TZM-bl cells after 2 days by luciferase reporter gene assay; type: functional, organism-based; conditions: Human immunodeficiency virus 1, SF33, TZM-bl, 48 h
[2] = Cytotoxicity against human TZM-bl cells assessed as reduction cell viability at <12.5 uM after 2 days by XTT assay; type: cell-based; conditions: 48 h
GP41 = GP41 (Human immunodeficiency virus 1, UniProt Q76270); experiment: Binding affinity to HIV1 gp41 (46 residues) by surface plasmon resonance method
[3] = target: GP41 (Human immunodeficiency virus 1) (UniProt Q76270); experiment: Binding affinity to HIV1 gp41 (46 residues) assessed as effect on protein secondary structure measured as alpha-helicity in PBS buffer at pH 7.2 by circular dichroism assay (reference value: 117 %)
[4] = Plasma concentration in Sprague-Dawley rat at […], sc after 6 hrs; type: ADME, organism-based
[5] = Half life in Sprague-Dawley rat at […], sc after 6 hrs; type: ADME, organism-based; conditions: in vivo

In the case of enfuvirtide, the EC50 [1] is reported as 0.003 µM, the EC90 [1] is reported as 0.023 µM and the Activity [2] is reported as “Non-toxic”. For the same substance, the Kd (GP41) was 0.182 µM, the Activity [3] was 67% and the concentration at 6 h [4] was under 1000 nM. The half-life at 6 h [5] was 1.5 h.
